The Papp A→B is how fast a substance crosses the layer from the apical side. One may read the Papp B→A as how fast a substance crosses the layer from the basolateral side.

The structures appear in SMILES notation. “And” between values parts separate entries of the source, which are not always exact repeats. Equal values may be shown once.

In data set [1] the test system is human lung cancer NCI-H460-Luc2 intracranial transplantation tumor. As to conditions: 20 mg/kg i.p. QW×3; 11 days after grouping. The protocol:
BALB/c nude mice were inoculated intracranially with human lung cancer NCI-H460-Luc2 cells to establish human lung cancer intracranial transplantation tumor model. […] The relative tumor inhibition rate TGI (%) was calculated based on tumor biofluorescence value and the efficacy was evaluated.

Data set [2] has as its system mice. As to conditions: prior literature WO2016210175A1, CN108024974A; cited from earlier work.
Data set [3] relates to human liver cancer HepG2 subcutaneous xenograft. The data set is described as follows: Human liver cancer HepG2 subcutaneous xenograft model. It is filed as in vivo, BALB/c nude mice. From the text: BALB/c nude mice were subcutaneously inoculated with human liver cancer HepG2 cells to establish human liver cancer subcutaneous transplantation tumor model.
(Xenograft models place foreign cells or tissue in a host animal.)

The target in data set [4] is P-gp (Homo sapiens, UniProt P08183). The data set can be described thus: P-gp substrate evaluation, MDCKII-MDR1 penetration test. The conditions noted are these: dog; for Papp A→B at 2 h / Papp B→A at 2 h: MDCK-MDR1. The protocol:
(1) MDCKII-MDR1 cells were cultured in the cell culture bottle. The conditions of the incubator were 37° C., 5% of CO2, and 95% of the relative humidity. When the cell growth confluence was up to 70-90%, the cells were inoculated to the transwell.
The cell suspension was transferred to the upper compartment of the 96-well transwell, wherein each upper compartment contains 50 μL of the cell suspension. The final inoculum density was 5.45×10^5 cells/cm^2.
(1) The transwell culture plate of the MDCKII-MDRT cells was taken out from the incubator. The cell monolayer membrane was rinsed two times with the buffer solution and incubated at 37° C. for 30 min.
(2) The transport rate that the compound was transported from the top-end to the base-end was tested. 75 μL of the buffer solution contained the sample was added to each upper compartment (top-end), and 235 μL of the buffer solution was added to each lower compartment (base-end).
(3) The transport rate that the compound was transported from the base-end to the top-end was tested. 75 μL of the buffer solution was added to each upper compartment (top-end), and 235 μL of the buffer solution contained the sample was added to each lower compartment (base-end).
(6) The upper and lower transits were merged up and then incubated at 37° C. for 2 h.
(7) After the incubation was finished, 50 μL of the samples from each well of the upper compartment and the lower compartment of the transwell culture plate were respectively added to new sample tubes. 200 μL of the acetonitrile containing the internal standard (100 nM Alprazolam, 200 nM Labetalol, 200 nM caffeine and 2 μM Ketoprofen) was added to each sample tube. After the sample tubes were vortexed for 10 min, they were centrifuged at 3220 g for 30 min. 100 μL of the supernatant was taken and diluted with the same volume of the water to perform the LC-MS/MS analysis. Each sample was adopted to the three parallel incubation.
The peak area was calculated by the result of the ion chromatography. The permeability coefficient (Papp, unit: cm/s×10^−6) of the compound was calculated by the formula: […]
In the formula, “VA” refers to the volume of the solution on the acceptor (Ap→Bl was 0.235 mL, and Bl→Ap was 0.075 mL), “Area” refers to the area of the permeable membrane of the 96-well transwell (0.143 cm^2), “time” refers to the incubation time (in second), “[drug]acceptor” refers to the drug concentration of the acceptor after the incubation, and “[drug]initial, donor” refers to the initial concentration of the drug administration before the incubation.
The efflux ratio was calculated by the following formula: […]
In the formula, “Papp (B-A)” refers to the permeability coefficient from the base-end to the top-end, and the term “Papp (A-B)” refers to the permeability coefficient from the top-end to the base-end.
The recovery was calculated by the following formula: […]
In the formula, “VA” refers to the volume of the solution on the acceptor (mL), “VD” refers to the volume of the solution on the donor (mL), “[drug]acceptor” refers to the drug concentration of the acceptor after the incubation, “[drug]donor” refers to the drug concentration of the donor after the incubation, and the term “[drug]initial, donor” refers to the initial concentration of the drug administration before the incubation.

In data set [5] the test system is human lung cancer NCI-H460 subcutaneous xenograft. The data set is described as follows: Human lung cancer NCI-H460 subcutaneous xenograft model, compounds B and C. Type of data set: in vivo, BALB/c nude mice. On the procedure: BALB/c nude mice were subcutaneously inoculated with human lung cancer NCI-H460 cells to establish human lung cancer subcutaneous transplantation tumor model. […] The positive drug Irinotecan 40 mg/kg group was administered by intraperitoneal injection once every 4 days for 7 times, and observed for 4 days.

Data set [6] is described as follows: Plasma stability, monkey. Type of data set: in vitro ADME. As to conditions: Monkey plasma; after 30 minutes. The protocol: (§1) The pH of the plasma was checked and recorded. Note: a.
(§2) The final concentration of solvent was 0.5%.
(§3) The assay is performed in duplicate.

Data set [7] is described as follows: Plasma stability, mouse. It is filed as in vitro ADME. As to conditions: Mouse plasma; after 30 minutes. The protocol:
as §1, §2, §3

A short description of data set [8]: Plasma stability, human. It is filed as in vitro ADME. The conditions noted are these: Human plasma; after 30 minutes; 5 μM; 37° C. The protocol:
as §1, §2, §3

The test system of data set [9] is HuPrime pancreatic cancer PA3546 subcutaneous xenograft PDX tumor. The data set is described as follows: PA3546 human pancreatic cancer subcutaneous PDX model. As to conditions: 120 mg/kg i.p. QW×3; Day 25.
Method: BALB/c nude mice were subcutaneously inoculated with HuPrime® model PA3546 tumor blocks to establish human pancreatic cancer subcutaneous transplantation tumor model. […] Efficacy was evaluated according to the relative tumor inhibition rate TGI (%), and safety was evaluated according to the change in body weight and the death of animals.
Data set [10] in a line: Plasma stability, dog. The conditions noted are these: Dog plasma; after 30 minutes. The protocol:
(§4) The frozen plasma was immediately melted in a water bath of 37° C. The plasma was centrifuged at 3, 220 g for 10 minutes to remove the blood clots and the supernatant was collected into a new test tube. The pH of the plasma was checked and recorded. Note: a. Only plasma that has been melted no more than twice since arrival was used; b. Only plasma in the range of pH 7 to pH 8 was used.
(§5) 1 mM of working solutions of the test compound and the control compound mevinolin were prepared in DMSO. 1 mM of the working solution of the control compound solution in […] was prepared in acetonitrile. 4 μL of the working solution was added to 796 μL of pre-incubated plasma to achieve 5 μM of final concentration. The final concentration of solvent was 0.5%.
(§6) The aliquots of 50 μL of the standard addition plasma were added to new test tubes and incubated in the water bath of 37° C. at approximately 60 rpm for 2 hours. The assay is performed in duplicate. At the end of the two hour incubation, 300 μL of quenched solution at room temperature (acetonitrile containing internal standards (acetonitrile, 100 nM Alprazolam, 500 nM Labetalol and 2 μM ketoprofen)) was added to terminate the reaction. Samples at time 0 were prepared by adding 50 μL of standard addition plasma to the new test tubes with 300 μL of quenched solution at room temperature. The test tubes were mixed by vortex for 5 minutes. The samples in the plates were centrifuged at 3, 220×g for 30 minutes at 4° C. to precipitate the proteins. 100 μL of supernatant was transferred to a new plate. The supernatant was diluted with 100 μL of water, mixed well and analysed using LC-MS/MS.

The nature of data set [11]: Plasma stability, rat. As to conditions: Rat plasma; after 30 minutes. The protocol: as §4, §5
as §6, with “The aliquots of 50 μL of the standard addition plasma were added to new test tubes and incubated in the water bath of 37° C. at approximately 60 rpm for 2 hours.” left out

Setting [12] is: MDCK-MDR1, Recovery (%) AP-BL, verapamil 0 μM.
Where [13] appears, read: MDCK-MDR1, Recovery (%) BL-AP, verapamil 0 μM.
The mark [14] stands for this setting: MDCK-MDR1, with verapamil 100 μM (in donor and acceptor buffer), Recovery (%) AP-BL, verapamil 100 μM.
Where [15] appears, read: MDCK-MDR1, with verapamil 100 μM (in donor and acceptor buffer), Recovery (%) BL-AP, verapamil 100 μM.

P-gp, sequence (P08183 whole entry): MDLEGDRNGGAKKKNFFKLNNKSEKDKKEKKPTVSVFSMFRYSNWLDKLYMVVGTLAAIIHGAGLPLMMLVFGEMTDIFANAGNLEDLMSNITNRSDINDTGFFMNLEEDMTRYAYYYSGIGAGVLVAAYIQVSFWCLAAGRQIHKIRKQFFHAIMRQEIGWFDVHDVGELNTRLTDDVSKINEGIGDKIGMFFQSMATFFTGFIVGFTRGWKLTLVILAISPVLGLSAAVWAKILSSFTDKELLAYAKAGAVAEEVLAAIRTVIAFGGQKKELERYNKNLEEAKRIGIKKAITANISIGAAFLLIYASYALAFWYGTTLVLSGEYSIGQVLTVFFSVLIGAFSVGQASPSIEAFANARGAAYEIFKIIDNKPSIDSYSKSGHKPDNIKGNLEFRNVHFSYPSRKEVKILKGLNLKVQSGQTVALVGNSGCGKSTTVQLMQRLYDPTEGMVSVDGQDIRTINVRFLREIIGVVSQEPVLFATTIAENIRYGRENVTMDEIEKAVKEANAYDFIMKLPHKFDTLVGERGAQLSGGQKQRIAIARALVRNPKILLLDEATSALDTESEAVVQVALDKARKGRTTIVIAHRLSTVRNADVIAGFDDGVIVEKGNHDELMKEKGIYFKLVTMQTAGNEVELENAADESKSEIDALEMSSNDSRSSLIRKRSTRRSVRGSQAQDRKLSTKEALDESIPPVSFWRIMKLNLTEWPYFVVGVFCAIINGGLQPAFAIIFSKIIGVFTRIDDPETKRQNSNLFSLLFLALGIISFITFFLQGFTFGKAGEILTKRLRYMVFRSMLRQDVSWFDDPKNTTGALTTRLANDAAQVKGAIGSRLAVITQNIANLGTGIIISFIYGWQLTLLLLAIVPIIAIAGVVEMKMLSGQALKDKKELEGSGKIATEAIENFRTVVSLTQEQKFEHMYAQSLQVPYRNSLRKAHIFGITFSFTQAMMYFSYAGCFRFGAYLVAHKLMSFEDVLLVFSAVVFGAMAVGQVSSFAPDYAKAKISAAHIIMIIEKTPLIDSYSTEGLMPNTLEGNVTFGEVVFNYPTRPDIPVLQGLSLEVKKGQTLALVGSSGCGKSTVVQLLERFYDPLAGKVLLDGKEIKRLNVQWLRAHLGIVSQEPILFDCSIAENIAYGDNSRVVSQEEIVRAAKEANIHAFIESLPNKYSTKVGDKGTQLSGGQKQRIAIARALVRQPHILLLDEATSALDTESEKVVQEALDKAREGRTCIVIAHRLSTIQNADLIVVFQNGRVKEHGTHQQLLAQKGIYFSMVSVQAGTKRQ

`CC(=O)O[C@H]1C(=O)[C@@]2(C)[C@H]([C@H](OC(=O)c3ccccc3)[C@]3(O)C[C@H](OC(=O)[C@H](O)[C@@H](NC(=O)c4ccccc4)c4ccccc4)C(C)=C1C3(C)C)[C@]1(OC(C)=O)CO[C@@H]1C[C@@H]2O` [Paclitaxel, reference compound]: the mean biofluorescence value in [1] is listed as 4184.52 E+05 photon/second.

For `C[C@H](OP(=O)(N1CC1)N1CC1)c1ccc([N+](=O)[O-])cc1` [TH2566], the “MTD Result” value in data set [2] is 2 mg/kg.

Take `CNC(=O)c1cc(Oc2ccc(NC(=O)Nc3ccc(Cl)c(C(F)(F)F)c3)cc2)ccn1` [Sorafenib, reference compound]: the cure rate in [3] (30 mg/kg (Group 2)) turned out to be 20%. In data set [3] (30 mg/kg, QD×21 Days, intragastric, Day 45), the “relative tumor inhibition rate TGI (%)” value turned out to be 48.11%.

Compound `Cc1ccc(NC(=O)c2ccc(CN3CCN(C)CC3)cc2)cc1Nc1nccc(-c2cccnc2)n1` [Imatinib] returned an apical-to-basolateral permeability (Papp A→B) at 2 h in data set [4] of 1.89 ×10⁻⁶ cm/s. Besides, in [4], the Papp B→A at 2 h was 30.5 ×10⁻⁶ cm/s. Moreover, the recovery at 2 h in data set [4] (setting [12]) came out at 79%; in data set [4] (setting [13]), 63.4%; in data set [4] (setting [14]), 83%; in data set [4] (setting [15]), 87.6%.

Turning to `COc1cc2nc(N3CCN(C(=O)c4ccco4)CC3)nc(N)c2cc1OC` [prazosin], the Papp A→B at 2 h in data set [4] was 11 ×10⁻⁶ cm/s. In [4], this compound showed a Papp B→A at 2 h of 31.8 ×10⁻⁶ cm/s. The recovery at 2 h in [4] (setting [12]) stood at 90.7%; in data set [4] (setting [13]), 78.5%; in data set [4] (setting [14]), 94.2%; in [4] (setting [15]) it was 88.5%.

With `C[C@@H](OP(=O)(N1CC1)N1CC1)c1ccc([N+](=O)[O-])cc1` [TH2565], the “MTD Result” value in [2] is 2 mg/kg.

Turning to `CCc1c2c(nc3ccc(OC(=O)N4CCC(N5CCCCC5)CC4)cc13)-c1cc3c(c(=O)n1C2)COC(=O)[C@]3(O)CC` [Irinotecan, reference compound], in [5] (40 mg/kg, Q4D×7, i.p., day 28), the “relative tumor inhibition rate TGI (%)” value is 79.03%. In addition, the “drug toxicity (weight loss / death)” value in [5] (at the tested dosage) was “a certain drug toxicity”.

In data set [4], `COCCc1ccc(OCC(O)CNC(C)C)cc1` (centres unmarked) [Metoprolol] showed a Papp A→B at 2 h of 27.6 ×10⁻⁶ cm/s and a Papp B→A at 2 h of 26.5 ×10⁻⁶ cm/s. For the same compound, in data set [4] (setting [12]), the recovery at 2 h is 96.2%. The compound also came in with a recovery at 2 h in data set [4] (setting [13]) of 98.5%.

In the case of `CC(C)[N+](C)(CCOC(=O)C1c2ccccc2Oc2ccccc21)C(C)C` [Propanthine, reference compound], the Remaining percentage was 54.38% in [6]; 1.98% in data set [7]; 0.07% and 3.32% in [8].

On to `Nc1ccn([C@@H]2O[C@H](CO)[C@@H](O)C2(F)F)c(=O)n1` [Gemcitabine, reference compound], for which, in data set [9], the “relative tumor inhibition rate TGI (%)” value is 45.31%.

On to `CC[C@H](C)C(=O)O[C@H]1C[C@@H](C)C=C2C=C[C@H](C)[C@H](CC[C@@H]3C[C@@H](O)CC(=O)O3)[C@H]21` [Lovastatin, reference compound], for which the Remaining percentage is 58.73% in [10]; 0.21% and 0.19% in [11].

(Values after US20230339991A1, “HYPOXIA-ACTIVATED DNA ALKYLATING AGENT AND MEDICAL USE THEREOF” (ASCENTAWITS PHARMACEUTICALS, LTD., priority 2020, published 2023).)
